Measurements taken from patent publication US8889696B2, “Substituted pyrido[2,3-d]pyrimidin-7(8H)-ones and therapeutic uses thereof” (Temple University—Of The Commonwealth System Of Higher …, priority 2009, dated 2014).

Tests used:
[1] = tested on: CD-1 female mice; test: Toxicity study in mice; type: in vivo
Procedure: . DMSO was used as a placebo. Three CD-1 female mice were used per group. Drugs were administered intraperitoneally at 100 mg/kg. Viability, signs of toxicity and body weight were monitored over the next 7 days. […]. […] Comparative body weight studies could not be carried out for this compound due to the early death of animals. These observations agree with the known toxicity of BI-2536. […]. Following this treatment, 100% survival for >10 days after injection was observed. […]

[2] = molecular target: PBK/TOPK (Homo sapiens (Human), UniProt Q96KB5); test: Kinase profiling; type: biochemical; details: 10 μM ATP
PBK/TOPK, sequence (Q96KB5 whole entry): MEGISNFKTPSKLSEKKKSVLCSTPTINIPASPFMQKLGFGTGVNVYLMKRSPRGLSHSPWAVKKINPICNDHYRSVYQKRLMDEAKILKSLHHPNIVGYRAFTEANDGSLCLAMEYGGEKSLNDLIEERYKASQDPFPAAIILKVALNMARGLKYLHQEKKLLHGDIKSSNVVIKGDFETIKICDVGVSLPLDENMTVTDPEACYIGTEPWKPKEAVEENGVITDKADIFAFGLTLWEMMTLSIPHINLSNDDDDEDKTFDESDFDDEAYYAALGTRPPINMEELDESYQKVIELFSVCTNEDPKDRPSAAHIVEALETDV

[3] = molecular target: WNK2 (Homo sapiens (Human), UniProt Q9Y3S1); test: Kinase profiling; type: biochemical; details: 10 μM ATP
[4] = tested on: HFL (human fibroblast); test: Normal cell killing, HFL; type: cell-based; details: concentration 5-fold higher than a concentration that resulted in tumor cell killing
Procedure: (§1) The effect of the compounds of the invention on tumor cells was determined by the assay described by Latham et al., Oncogene 12:827-837 (1996). Tumor cells K562 (chronic myelogenous leukemia; leukemia cell line +ve for Bcr-Abl) or DU145 (prostate cancer) were plated in 12-well dishes at a cell density of 2.5×10^4 cells well. The plated cells were treated 24 hours later with a compound of the invention dissolved in DMSO at multiple concentrations ranging from 0.01 μM to 100 μM. The plates were examined 96 hours later under an inverted microscope, Olympus CK-2 using an 10× objective, and compound activity was noted by physical observation. When necessary, the total number of viable cells was determined by trypsinizing the wells and counting the number of viable cells, as determined by trypan blue exclusion, using a hemacytometer.
(§2) Utilizing a similar procedure, the compounds of Example 12 and Example 40 were tested on two normal cell lines: HFL (human fibroblast) and hMSC (human marrow stem cell).

[5] = tested on: DU145 (prostate cancer); test: Effect on tumor cell lines (Latham assay), DU145; type: cell-based; details: Homo sapiens, DU-145; DU145 cells, examined 96 hours after treatment; read-out: Potencies (IC50) DU 145
Procedure: (§3) The plated cells were treated 24 hours later with a compound of the invention dissolved in DMSO at multiple concentrations ranging from 0.01 μM to 100 μM. […] When necessary, the total number of viable cells was determined by trypsinizing the wells and counting the number of viable cells, as determined by trypan blue exclusion, using a hemacytometer.

[6] = tested on: hMSC (human marrow stem cell); test: Normal cell killing, hMSC; type: cell-based; details: concentration 5-fold higher than a concentration that resulted in tumor cell killing
Procedure: as §1, §2

[7] = tested on: K562 (chronic myelogenous leukemia); test: Effect on tumor cell lines (Latham assay), K562; type: cell-based; details: Homo sapiens; K562 cells, examined 96 hours after treatment; read-out: Potencies (IC50) K 562
Procedure: as §3

[8] = molecular target: recombinant Plk1 (Homo sapiens (Human), UniProt P53350)
recombinant Plk1, sequence (P53350 whole entry): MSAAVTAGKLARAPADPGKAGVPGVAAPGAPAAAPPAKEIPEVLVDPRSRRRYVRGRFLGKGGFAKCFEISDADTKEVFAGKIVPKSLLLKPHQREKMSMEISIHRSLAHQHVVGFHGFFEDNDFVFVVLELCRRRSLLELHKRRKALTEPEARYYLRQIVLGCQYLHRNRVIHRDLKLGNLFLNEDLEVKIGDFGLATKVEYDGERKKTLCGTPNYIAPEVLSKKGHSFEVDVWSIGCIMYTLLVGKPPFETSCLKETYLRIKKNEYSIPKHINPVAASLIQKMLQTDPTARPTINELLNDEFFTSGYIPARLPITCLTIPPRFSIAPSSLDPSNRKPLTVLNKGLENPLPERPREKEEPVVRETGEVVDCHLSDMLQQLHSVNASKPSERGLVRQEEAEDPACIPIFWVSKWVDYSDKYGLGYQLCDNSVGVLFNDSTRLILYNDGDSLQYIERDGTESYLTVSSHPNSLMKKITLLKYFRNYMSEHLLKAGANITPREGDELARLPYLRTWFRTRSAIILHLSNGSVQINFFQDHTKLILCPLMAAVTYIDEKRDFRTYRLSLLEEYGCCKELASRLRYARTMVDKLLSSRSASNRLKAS

[9] = molecular target: recombinant Plk3 (Homo sapiens (Human), UniProt Q9H4B4); test: Plk kinase inhibition assay (32P-ATP, casein); type: biochemical; details: 5 μM ATP, FIG. 1
recombinant Plk3, sequence (Q9H4B4 whole entry): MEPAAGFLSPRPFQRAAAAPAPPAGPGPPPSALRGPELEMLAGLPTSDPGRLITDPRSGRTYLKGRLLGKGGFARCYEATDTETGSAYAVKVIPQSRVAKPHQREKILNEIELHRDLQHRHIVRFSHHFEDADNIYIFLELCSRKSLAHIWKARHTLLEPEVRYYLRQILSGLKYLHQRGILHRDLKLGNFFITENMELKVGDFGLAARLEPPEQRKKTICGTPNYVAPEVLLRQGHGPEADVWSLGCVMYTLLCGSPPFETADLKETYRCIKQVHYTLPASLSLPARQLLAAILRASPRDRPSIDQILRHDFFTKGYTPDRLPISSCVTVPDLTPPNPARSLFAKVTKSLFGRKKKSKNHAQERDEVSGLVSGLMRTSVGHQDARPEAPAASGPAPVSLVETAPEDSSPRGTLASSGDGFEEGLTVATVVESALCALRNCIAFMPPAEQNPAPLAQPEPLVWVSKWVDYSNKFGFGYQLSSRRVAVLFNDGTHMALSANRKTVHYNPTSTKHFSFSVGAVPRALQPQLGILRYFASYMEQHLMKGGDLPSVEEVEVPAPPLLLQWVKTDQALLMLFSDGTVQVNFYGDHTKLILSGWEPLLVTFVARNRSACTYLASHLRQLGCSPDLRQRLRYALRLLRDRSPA
Procedure: (§4) Ten ng of recombinant Plk1, Plk2, Plk3 or Plk4 kinase were incubated with the indicated concentrations of compound for 30 minutes at room temperature. Kinase reactions were started by the addition of substrate mix (5 μM ATP, 10 μCi γ^32P-ATP, 1 μg α-casein, 10 mM MgCl2) for 15 minutes at 30° C. Reactions were stopped by 3% phosphoric acid, spotted on PE30 filtermat, washed, dried and subjected to scintillation counting. Data is plotted (after background subtraction) using GraphPad Prism4 software as a non-linear regression plot with variable slope to obtain IC50 values.
as §4, with “Kinase” for “Ten ng of recombinant Plk1, Plk2, Plk3 or Plk4 kinase were incubated with the indicated concentrations of compound for 30 minutes at room temperature. Kinase”

[10] = molecular target: T1, PLK2 (Homo sapiens (Human), UniProt Q9NYY3); test: Plk kinase inhibition assay (32P-ATP, casein); type: biochemical; details: 5 μM ATP, FIG. 1
T1 sequence (Q9NYY3 whole entry): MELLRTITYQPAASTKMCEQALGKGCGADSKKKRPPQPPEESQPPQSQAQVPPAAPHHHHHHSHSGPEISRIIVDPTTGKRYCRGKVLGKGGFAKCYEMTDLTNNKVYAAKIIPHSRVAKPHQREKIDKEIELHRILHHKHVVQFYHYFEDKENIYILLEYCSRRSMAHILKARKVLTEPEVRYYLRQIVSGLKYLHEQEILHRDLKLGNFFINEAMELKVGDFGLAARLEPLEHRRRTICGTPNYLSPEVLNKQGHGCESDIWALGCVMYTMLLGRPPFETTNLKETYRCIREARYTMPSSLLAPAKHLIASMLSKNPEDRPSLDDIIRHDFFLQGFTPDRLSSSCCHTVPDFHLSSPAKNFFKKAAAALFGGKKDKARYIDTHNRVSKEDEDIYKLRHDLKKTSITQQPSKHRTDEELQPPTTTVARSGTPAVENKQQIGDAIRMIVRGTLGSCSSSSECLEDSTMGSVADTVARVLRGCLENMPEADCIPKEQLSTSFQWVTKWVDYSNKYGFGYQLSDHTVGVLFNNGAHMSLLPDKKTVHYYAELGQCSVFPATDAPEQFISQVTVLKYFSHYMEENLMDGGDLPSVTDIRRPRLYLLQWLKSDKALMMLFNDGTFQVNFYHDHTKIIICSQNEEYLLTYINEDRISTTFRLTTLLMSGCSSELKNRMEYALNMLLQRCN
Procedure: as §4
as §4, with “Kinase” for “Ten ng of recombinant Plk1, Plk2, Plk3 or Plk4 kinase were incubated with the indicated concentrations of compound for 30 minutes at room temperature. Kinase”

[11] = tested on: U2OS osteosarcoma cells; test: Spindle staining of U2OS cells (anti-alpha tubulin, fluorescent microscopy); type: cell-based; details: 1 uM, 24 hrs
Procedure: The cells were fixed in 4% paraformaldehyde and stained with anti-alpha tubulin antibodies conjugated with FITC followed by 5 μg/ml […] staining. The coverslips were visualized by fluorescent microscopy using an Olympus microscope at 100× magnification equipped with the Insight digital camera system.

[12] = molecular target: RSK1 (Homo sapiens (Human), UniProt Q15418); test: biochemical
RSK1, sequence (Q15418 whole entry): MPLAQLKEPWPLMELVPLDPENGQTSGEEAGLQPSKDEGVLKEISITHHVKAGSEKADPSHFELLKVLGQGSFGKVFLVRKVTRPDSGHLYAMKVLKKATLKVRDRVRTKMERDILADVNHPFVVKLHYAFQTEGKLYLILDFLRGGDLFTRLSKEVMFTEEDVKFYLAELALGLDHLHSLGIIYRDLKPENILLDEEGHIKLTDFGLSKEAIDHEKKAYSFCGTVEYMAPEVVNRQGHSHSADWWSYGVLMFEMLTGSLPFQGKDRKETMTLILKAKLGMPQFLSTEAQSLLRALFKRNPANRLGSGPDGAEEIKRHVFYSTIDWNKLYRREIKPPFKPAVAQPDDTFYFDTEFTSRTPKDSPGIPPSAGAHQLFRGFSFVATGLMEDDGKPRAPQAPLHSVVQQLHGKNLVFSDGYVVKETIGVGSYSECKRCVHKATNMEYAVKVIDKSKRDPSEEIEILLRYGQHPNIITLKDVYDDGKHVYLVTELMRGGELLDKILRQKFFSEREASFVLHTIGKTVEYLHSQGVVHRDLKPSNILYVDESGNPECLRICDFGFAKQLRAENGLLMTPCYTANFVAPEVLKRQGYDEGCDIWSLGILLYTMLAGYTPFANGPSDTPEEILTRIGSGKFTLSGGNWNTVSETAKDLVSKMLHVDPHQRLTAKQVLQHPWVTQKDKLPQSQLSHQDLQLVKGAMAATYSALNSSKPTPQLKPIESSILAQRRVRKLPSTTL

[13] = molecular target: FGFR3 (Homo sapiens (Human), UniProt P22607); test: Kinase profiling; type: biochemical; details: 10 μM ATP
FGFR3, sequence (P22607 23-806): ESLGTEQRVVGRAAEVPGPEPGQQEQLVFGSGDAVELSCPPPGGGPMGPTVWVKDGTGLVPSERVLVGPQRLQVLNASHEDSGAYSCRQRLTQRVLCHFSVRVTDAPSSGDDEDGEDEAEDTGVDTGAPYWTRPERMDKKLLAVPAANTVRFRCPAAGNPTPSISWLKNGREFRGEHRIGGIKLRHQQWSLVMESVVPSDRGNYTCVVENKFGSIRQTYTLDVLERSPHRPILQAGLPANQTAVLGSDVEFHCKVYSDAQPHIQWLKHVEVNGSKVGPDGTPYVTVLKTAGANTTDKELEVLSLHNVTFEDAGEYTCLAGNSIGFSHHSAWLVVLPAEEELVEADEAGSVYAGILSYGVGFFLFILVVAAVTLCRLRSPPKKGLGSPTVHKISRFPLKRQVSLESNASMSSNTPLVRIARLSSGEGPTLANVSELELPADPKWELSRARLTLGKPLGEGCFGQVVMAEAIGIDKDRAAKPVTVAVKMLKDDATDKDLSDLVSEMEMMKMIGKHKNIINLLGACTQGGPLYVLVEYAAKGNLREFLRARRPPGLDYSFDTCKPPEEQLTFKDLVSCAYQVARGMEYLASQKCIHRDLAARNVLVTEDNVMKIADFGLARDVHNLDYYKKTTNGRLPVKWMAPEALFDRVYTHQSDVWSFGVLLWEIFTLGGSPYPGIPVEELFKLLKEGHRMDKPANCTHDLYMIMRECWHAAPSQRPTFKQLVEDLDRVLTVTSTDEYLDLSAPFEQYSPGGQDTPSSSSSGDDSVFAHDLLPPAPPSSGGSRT

[14] = tested on: tumor cells; test: Apoptosis induction in tumor cells; type: cell-based
[15] = molecular target: T1, PLK2; test: Kinase profiling; type: biochemical; details: 10 μM ATP
[16] = tested on: HELA; test: Viable cell count GI50 (Table 4); type: cell-based; details: Cervical, 96 h continuous treatment, trypan blue
Procedure: (§5) Cells (1×10^5) were plated into 6-well dishes and 24 h later test compound was added at five different concentrations over a 2 log dilution (1-100 μM). The total number of viable cells was determined after 96 h of continuous treatment by staining with trypan blue and counting the number of non-staining cells (viable) remaining in each well using a hemacytometer. The percentage of viable cells remaining was calculated as follows: # viable cells (compound treated)/# viable cells (DMSO treated)*100.

[17] = tested on: GRANTA-519; test: Viable cell count GI50 (Table 4); type: cell-based; details: GRANTA-519, Mantle Cell Lymphoma; 96 h continuous treatment, trypan blue
Procedure: as §5

[18] = tested on: SK-MEL-28; test: Viable cell count GI50 (Table 4); type: cell-based; details: SK-MEL-28, Melanoma; 96 h continuous treatment, trypan blue
Procedure: as §5

[19] = tested on: BT474; test: Viable cell count GI50 (Table 4); type: cell-based; details: BT474, Breast (Erbb2+); 96 h continuous treatment, trypan blue
Procedure: as §5

[20] = tested on: U87; test: Viable cell count GI50 (Table 4); type: cell-based; details: U87, Glioblastoma; 96 h continuous treatment, trypan blue
Procedure: as §5

[21] = tested on: RAJI; test: Viable cell count GI50 (Table 4); type: cell-based; details: B-Cell, 96 h continuous treatment, trypan blue
Procedure: as §5

[22] = tested on: U2OS; test: Viable cell count GI50 (Table 4); type: cell-based; details: Osteosarcoma, 96 h continuous treatment, trypan blue
Procedure: as §5

[23] = tested on: U2OS osteosarcoma cells; test: Induction of apoptosis in U2OS cells (Caspase Glo, Cell Titer Blue); type: cell-based; details: 24 hours, FIG. 3
Procedure: U2OS cells were treated with increasing concentrations of the compound for 24 hours. Cell viability was measured by incubating cells with Cell Titer Blue reagent at 37° C. for 3 hours under 5% CO2. Thereafter the cells were incubated with Caspase Glo reagent for 1 hour at room temperature to assay induction of Caspase 3/7 activity.
Cell viability was measured by incubating cells with Cell Titer Blue reagent (Promega) at 37° C. for 3 hours under 5% CO2. Thereafter the cells were incubated with Caspase Glo reagent (Promega) for 1 hour at room temperature to assay induction of Caspase 3/7 activity.

[24] = tested on: HFL; test: Viable cell count GI50 (Table 4); type: cell-based, human; details: Normal, 96 h continuous treatment, trypan blue
Procedure: as §5

[25] = molecular target: recombinant Plk4 (Homo sapiens (Human), UniProt O00444); test: Plk kinase inhibition assay (32P-ATP, casein); type: biochemical
recombinant Plk4, sequence (O00444 whole entry): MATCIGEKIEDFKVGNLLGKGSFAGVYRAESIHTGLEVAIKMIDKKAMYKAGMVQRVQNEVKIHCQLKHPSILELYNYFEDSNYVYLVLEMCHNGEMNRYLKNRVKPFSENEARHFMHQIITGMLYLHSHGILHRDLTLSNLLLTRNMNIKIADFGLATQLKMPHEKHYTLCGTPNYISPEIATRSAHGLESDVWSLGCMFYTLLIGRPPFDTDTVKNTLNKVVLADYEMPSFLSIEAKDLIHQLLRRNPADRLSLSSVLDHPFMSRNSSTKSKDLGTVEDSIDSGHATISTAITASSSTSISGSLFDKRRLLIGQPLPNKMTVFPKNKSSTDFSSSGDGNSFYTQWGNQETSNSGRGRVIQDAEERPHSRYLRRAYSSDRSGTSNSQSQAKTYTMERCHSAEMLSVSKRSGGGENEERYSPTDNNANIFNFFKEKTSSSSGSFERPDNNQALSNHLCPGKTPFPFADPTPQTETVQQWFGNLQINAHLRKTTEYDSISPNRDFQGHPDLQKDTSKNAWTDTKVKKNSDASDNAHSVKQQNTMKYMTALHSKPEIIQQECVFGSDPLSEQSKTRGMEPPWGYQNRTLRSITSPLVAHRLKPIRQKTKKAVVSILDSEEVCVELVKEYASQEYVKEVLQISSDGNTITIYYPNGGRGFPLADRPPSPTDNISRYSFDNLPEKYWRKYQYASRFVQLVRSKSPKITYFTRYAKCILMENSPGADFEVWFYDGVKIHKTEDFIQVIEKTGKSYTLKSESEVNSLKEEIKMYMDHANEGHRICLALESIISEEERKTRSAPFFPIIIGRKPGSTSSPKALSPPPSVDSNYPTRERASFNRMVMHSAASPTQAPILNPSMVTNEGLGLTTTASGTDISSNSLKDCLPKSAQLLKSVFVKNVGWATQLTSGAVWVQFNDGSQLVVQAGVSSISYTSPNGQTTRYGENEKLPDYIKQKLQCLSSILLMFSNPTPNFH
Procedure: as §4
as §4, with “Kinase” for “Ten ng of recombinant Plk1, Plk2, Plk3 or Plk4 kinase were incubated with the indicated concentrations of compound for 30 minutes at room temperature. Kinase”

[26] = molecular target: FLT3 (D835Y) (Homo sapiens (Human), UniProt P36888, D835Y); test: Kinase profiling; type: biochemical; details: 10 μM ATP
[27] = molecular target: T1, PLK2; test: Affinity analysis with biotinylated compound, streptavidin pull-down from U2OS lysates, anti-Plk2 Western blot; type: binding; details: FIG. 2
Procedure: Increasing concentrations of a biotinylated form of the compound were incubated with U2OS lysates. Streptavidin-conjugated agarose beads were utilized to pull down the biotinylated compound in complex with its interacting proteins.
Increasing concentrations of a biotinylated form of the compound were incubated for two hours with U2OS lysates (0.6 mg/ml) derived from the U2OS cell line. Streptavidin-conjugated agarose beads were utilized to pull down the biotinylated compound in complex with its interacting proteins. Pre-cleared streptavidin beads were added to each reaction mixture and incubated overnight at 4° C. The beads were washed and blotted with SDS-PAGE loading buffer and run on a 10% acrylamide denaturing gel. […] Western blotting was performed using an anti-Plk2 antibody.

[28] = 100 mg/kg intraperitoneally, monitored over 7 days

CC[C@@H]1C(=O)N(C)c2cnc(Nc3ccc(C(=O)NC4CCN(C)CC4)cc3OC)nc2N1C1CCCC1 [BI-2536, reference compound]
death of mice ([1]; female, CD-1, mouse, in vivo, 7 days): two mice died within 24 hours while the third mouse died within 72 hours

Staurosporine
IC50 [2]: 433 nM | IC50 [3]: 8090 nM

Cn1c(=O)c(S(=O)(=O)c2ccc(F)cc2)cc2cnc(Nc3cnc4[nH]ccc4c3)nc21 [Example 12, 2-(1H-pyrrolo[2,3-b]pyridin-5-ylamino)-6-(4-fluorophenylsulfonyl)-8-methylpyrido[2,3-d]pyrimidin-7(8H)-one]
killing of normal cells [4]: did not kill the normal cells | melting point: 274 to 280 °C | IC50 [5]: < 1000 nM | killing of normal cells [6]: did not kill the normal cells | IC50 [7]: < 1000 nM

COC[C@H]1OC(=O)c2coc3c2[C@@]1(C)C1=C(C3=O)[C@@H]2CCC(=O)[C@@]2(C)C[C@H]1OC(C)=O [Wortmanin, wortmanin, reference compound]
inhibitory activity against PLK-1 [8]: nanomolar inhibitory activity | inhibitory activity against PLK-3 [9]: nanomolar inhibitory activity | inhibitory activity against PLK-2 [10]: nanomolar inhibitory activity

Cn1c(=O)c(S(=O)(=O)c2ccc(F)cc2F)cc2cnc(Nc3ccc4[nH]ncc4c3)nc21 [Example 40, 2-(1H-indazol-5-ylamino)-6-(2,4-difluorophenylsulfonyl)-8-methylpyrido[2,3-d]pyrimidin-7(8H)-one]
killing of normal cells [4]: did not kill the normal cells | IC50 [5]: 10000 to 25000 nM | killing of normal cells [6]: did not kill the normal cells | IC50 [7]: 10000 to 25000 nM

Cn1c(=O)c(S(=O)(=O)c2ccc(F)cc2F)cc2cnc(Nc3ccc4[nH]ccc4c3)nc21 [Example 39, 2-(1H-indol-5-ylamino)-6-(2,4-difluorophenylsulfonyl)-8-methylpyrido[2,3-d]pyrimidin-7(8H)-one]
treated cells mitotically arrested with multipolar spindles [11]: greater than 95% | IC50 [12]: 4250 nM | IC50 [13]: 9000 nM | concentration inducing apoptosis in tumor cells [14]: approximately 100 nM | IC50 [15]: 201 nM | inhibitory activity against PLK-1 [8]: little or no inhibitory activity | GI50 [16]: 50 nM | GI50 [17]: 40 nM | GI50 [18]: 200 nM | GI50 [19]: 100 nM | GI50 [20]: 200 nM | GI50 [21]: 50 nM | GI50 [22]: 50 nM | signs of toxicity [1, 28]: No signs of toxicity | survival of mice [1, 28]: 100% | weight loss [1, 28]: No weight loss | survival of mice ([1]; 200 mg/kg, for >10 days after injection): 100% | cell viability ([23]; Cell Titer Blue): dose-dependent decrease in cell viability | induction of apoptosis [23]: induces apoptosis of U2OS osteosarcoma cells in a dose-dependent fashion | GI50 [24]: > 5000 nM | inhibitory activity against PLK-3 [9]: little or no inhibitory activity | inhibitory activity against PLK-4 [25]: little or no inhibitory activity | inhibitory activity against PLK-2 [10]: potent inhibitor | IC50 [26]: 8850 nM | competition of Plk2 / compound-biotin interaction by free compound [27]: readily competed out
